According to patent US11898187B2 (priority 2017, dated 2024):

The molecules below were run against N-glycosyltransferase from Actinobacillus pleuropneumoniae (Actinobacillus pleuropneumoniae serotype 5b, UniProt A3N2T3) (assay: GlycoSCORES: peptide glycosylation by NGT, read by SAMDI-MS). Details: 50 μM peptide, 2.5 mM UDP-Glc, 0.5 μM purified NGT, 30° C., 3 h.
Type: biochemical

Chain of N-glycosyltransferase from Actinobacillus pleuropneumoniae (A3N2T3 whole entry): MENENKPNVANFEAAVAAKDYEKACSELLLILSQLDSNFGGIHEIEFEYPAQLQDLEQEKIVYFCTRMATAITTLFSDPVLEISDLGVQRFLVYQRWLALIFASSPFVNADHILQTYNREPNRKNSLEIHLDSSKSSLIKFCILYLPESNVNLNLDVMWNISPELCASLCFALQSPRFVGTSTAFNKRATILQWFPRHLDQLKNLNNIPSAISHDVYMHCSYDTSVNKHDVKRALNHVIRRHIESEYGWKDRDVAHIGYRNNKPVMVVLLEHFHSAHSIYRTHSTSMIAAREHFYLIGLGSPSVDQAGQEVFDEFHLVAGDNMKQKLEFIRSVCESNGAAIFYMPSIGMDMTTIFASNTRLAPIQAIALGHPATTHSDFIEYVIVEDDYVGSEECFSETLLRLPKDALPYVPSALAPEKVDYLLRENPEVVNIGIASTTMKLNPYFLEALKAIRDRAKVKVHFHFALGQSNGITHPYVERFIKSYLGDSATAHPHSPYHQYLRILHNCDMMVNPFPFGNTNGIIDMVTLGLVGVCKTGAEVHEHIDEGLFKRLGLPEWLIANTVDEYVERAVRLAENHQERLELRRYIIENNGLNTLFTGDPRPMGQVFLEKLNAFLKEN

QNATFC was tested, and the “glucose modification of truncated GSDQNATF peptides” value was “most efficient glucose modification”.
In the case of CNAT, the “glucose modification of truncated GSDQNATF peptides” value is reported as “could be modified by NGT”.

Same assay, conditions: 4-mer peptides, fraction modified (0-1)

First: ANTT
Second: HNAT
The “MO[…]” value of the first is higher: 0.7872 for the first, 0.7427 for the second.

Going from INVT to PNRT, the “MO[…]” value rises from 0.6893 to 0.8662.

Going from NNRT to HNRT, the “MO[…]” value falls from 0.7671 to 0.6962.

Going from SNTT to MNVT, the “MO[…]” value rises from 0.5496 to 0.8374.

Going from HNIS to LNVT, the “MO[…]” value falls from 0.704 to 0.6724.

First: GNWT
Second: DNVT
The “MO[…]” value of the first is higher: 0.9409 for the first, 0.5073 for the second.

First: HNVS
Second: ANYT
The “MO[…]” value of the first is higher: 0.9185 for the first, 0.91 for the second.

Compared with MNHT, PNMS is lower in “MO[…]” value: 0.855 for the first, 0.636 for the second.

First: MNIS
Second: NNHS
The “MO[…]” value of the first is lower: 0.5286 for the first, 0.6848 for the second.

First: TNHS
Second: NNHT
The “MO[…]” value of the first is lower: 0.5091 for the first, 0.8624 for the second.

Going from TNVT to GNVS, the “MO[…]” value falls from 0.9096 to 0.6117.

Compared with TNST, ANRT is higher in “MO[…]” value: 0.6424 for the first, 0.8206 for the second.

Going from ANVS to ANST, the “MO[…]” value falls from 0.9611 to 0.7846.

Going from QNVT to PNHS, the “MO[…]” value rises from 0.5056 to 0.6988.

Compared with SNRT, ANAT is higher in “MO[…]” value: 0.6821 for the first, 0.9101 for the second.

Compared with ENRT, HNHS is lower in “MO[…]” value: 0.7271 for the first, 0.6747 for the second.

First: SNHT
Second: NNVS
The “MO[…]” value of the first is higher: 0.906 for the first, 0.7147 for the second.

First: PNVT
Second: ANIS
The “MO[…]” value of the first is higher: 0.9741 for the first, 0.8694 for the second.

Going from MNHS to ANHS, the “MO[…]” value rises from 0.6816 to 0.6918.

Going from ENHT to VNAT, the “MO[…]” value falls from 0.7656 to 0.6982.

Compared with TNAT, VNIT is lower in “MO[…]” value: 0.7761 for the first, 0.6873 for the second.

Going from WNIS to TNHT, the “MO[…]” value rises from 0.746 to 0.8444.

Going from ENVT to SNYT, the “MO[…]” value falls from 0.8903 to 0.6177.

Going from TNVS to NNAT, the “MO[…]” value falls from 0.8695 to 0.7664.

Going from GNWS to GNVT, the “MO[…]” value rises from 0.72 to 0.8843.

First: DNHT
Second: PNTT
The “MO[…]” value of the first is lower: 0.7287 for the first, 0.8532 for the second.

Compared with PNFT, MNVS is higher in “MO[…]” value: 0.8402 for the first, 0.9118 for the second.

First: PNIT
Second: SNVS
The “MO[…]” value of the first is lower: 0.9358 for the first, 0.971 for the second.

Compared with SNAT, MNRT is lower in “MO[…]” value: 0.8383 for the first, 0.6724 for the second.

First: GNYT
Second: WNHT
The “MO[…]” value of the first is lower: 0.5195 for the first, 0.8335 for the second.

Going from SNST to WNRT, the “MO[…]” value rises from 0.5156 to 0.6933.

Going from ENVS to MNTT, the “MO[…]” value falls from 0.6584 to 0.5502.

Compared with PNYT, LNIT is lower in “MO[…]” value: 0.8963 for the first, 0.5288 for the second.

Going from PNST to MNMT, the “MO[…]” value falls from 0.8271 to 0.5547.

Compared with ANFT, SNIT is lower in “MO[…]” value: 0.8633 for the first, 0.7453 for the second.

Compared with GNHT, WNAT is higher in “MO[…]” value: 0.7856 for the first, 0.8599 for the second.

First: PNVS
Second: SNHS
The “MO[…]” value of the first is higher: 0.9374 for the first, 0.5937 for the second.

Compared with ANVT, PNAT is lower in “MO[…]” value: 0.9844 for the first, 0.8919 for the second.

Compared with MNIT, PNYS is lower in “MO[…]” value: 0.7393 for the first, 0.6762 for the second.

Compared with ANYS, ANLT is lower in “MO[…]” value: 0.6975 for the first, 0.6957 for the second.

Going from SNVT to MNAT, the “MO[…]” value falls from 0.9488 to 0.7903.

Compared with ENST, PNIS is higher in “MO[…]” value: 0.6042 for the first, 0.8821 for the second.

Compared with HNIT, ANMS is lower in “MO[…]” value: 0.8411 for the first, 0.5336 for the second.

Compared with PNMT, VNVT is lower in “MO[…]” value: 0.8399 for the first, 0.8081 for the second.

Going from PNLT to WNIT, the “MO[…]” value rises from 0.8254 to 0.9275.

Same assay, conditions: 6-mer sequences in GlycoSCORES peptide screens; 50 μM peptide, 2.5 mM UDP-Glc, 0.025 μM NGT for 1 h

For YANATS, the “glycosylation / modification efficiency” value was roughly 36%.
With FANATT the “glycosylation / modification efficiency” value was roughly 75%.

Same assay, conditions: CFPS NGT, 50 μM peptide, 2.5 mM UDP-Glc, 30° C.

In the case of YANATT, the “modification by NGT in GlycoSCORES peptide screens” value (“modification by NGT” for short) is reported as “efficiently modified”.
With GNWTRC the “modification by NGT” value was “among the most efficiently glycosylated sequences”.
With NHNETD the “modification by NGT” value was “no detectable modification”.
In the case of GGNWTT, the “modification by NGT” value is reported as “more efficiently glycosylated than any previously studied”.

The molecules below were run against T1, NGT (Actinobacillus pleuropneumoniae serotype 5b, UniProt A3N2T3) (assay: not given). Details: BL21(DE3) E. coli; Fc induced 2 h, then NGT 30 min.
Type: cell-based

T1 sequence (A3N2T3 whole entry): as above

With GGNWTT the “glycosylation of Fc variant in E. coli cytoplasm” value was “most efficient glycosylation”.

Same assay, conditions: GlycTag at Asn1366; HMW1ct induced 1 h, then NGT 2 h

In the case of GGNWTT, the “modification of HMW1ct variant in E. coli cytoplasm” value is reported as “highest modification”.

Each molecule was assayed against T1, NGT (assay: not given). Details: 50 μM peptide, 1 mM sugar donor, purified NGT, 30° C.
Type: biochemical

For `O=c1ccn([C@@H]2O[C@H](COP(=O)(O)OP(=O)(O)O[C@H]3OC[C@@H](O)[C@H](O)[C@H]3O)[C@@H](O)[C@H]2O)c(=O)[nH]1` [UDP-Xyl, UDP-xylose], the “efficiency of sugar transfer by NGT” value was “much lower efficiencies”.

These molecules were tested against T1, NGT (assay: not given). Details: 5 μM Im7 variant, 0.1 μM NGT, 2.5 mM UDP-Glc, 2.5 h, 30° C.
Type: biochemical

With GGNWTT the “glycosylation of Im7 variant” value was “most efficient modification within the Im7 protein”.
